{"source": "ChEMBL document CHEMBL5465560", "about": "“Selectivity Literature for EUbOPEN Chemogenomic Library” (2024)", "key": {"[1]": {"tested_on": "Epidermal growth factor receptor (Homo sapiens), P00533 [UNDEFINED MUTATION]", "details": "at 10 µM"}, "[2]": {"biological_target": "T1, Testis-specific serine/threonine-protein kinase 2 (Homo sapiens) (UniProt Q96PF2)", "T1 sequence (whole entry)": "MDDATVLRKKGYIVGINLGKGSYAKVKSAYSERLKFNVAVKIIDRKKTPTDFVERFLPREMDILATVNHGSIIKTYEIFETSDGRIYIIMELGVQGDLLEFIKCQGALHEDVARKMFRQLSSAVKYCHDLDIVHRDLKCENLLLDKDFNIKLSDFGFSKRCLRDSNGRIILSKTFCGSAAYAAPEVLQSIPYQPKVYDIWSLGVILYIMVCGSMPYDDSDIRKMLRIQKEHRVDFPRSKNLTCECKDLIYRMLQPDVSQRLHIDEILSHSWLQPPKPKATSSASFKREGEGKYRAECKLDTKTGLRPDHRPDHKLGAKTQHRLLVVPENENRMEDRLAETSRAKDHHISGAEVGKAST", "assay": "Selectivity interaction (Kinase screening (Nanosyn)) EUB0000604a TSSK2"}, "[3]": {"biological_target": "Calcium/calmodulin-dependent protein kinase type 1D (Homo sapiens) (UniProt Q8IU85)", "sequence (Q8IU85 whole entry, looked up)": "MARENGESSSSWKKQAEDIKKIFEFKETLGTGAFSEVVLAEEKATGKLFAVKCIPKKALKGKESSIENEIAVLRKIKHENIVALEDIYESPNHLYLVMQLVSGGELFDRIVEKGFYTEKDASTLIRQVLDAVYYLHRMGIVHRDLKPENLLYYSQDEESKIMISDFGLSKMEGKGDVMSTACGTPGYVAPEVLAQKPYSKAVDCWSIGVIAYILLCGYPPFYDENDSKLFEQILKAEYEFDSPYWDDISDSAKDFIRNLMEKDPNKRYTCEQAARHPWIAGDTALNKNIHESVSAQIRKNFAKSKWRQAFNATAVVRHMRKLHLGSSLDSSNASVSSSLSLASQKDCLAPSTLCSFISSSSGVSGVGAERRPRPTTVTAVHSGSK", "assay": "Selectivity interaction (Ambit KINOMEscan and KiNATiv profiling in Jurkat cells) EUB0000090b CAMK1D", "format": "cell-based", "details": "at 1 µM"}, "[4]": {"biological_target": "DNA (cytosine-5)-methyltransferase 3A (Homo sapiens) (UniProt Q9Y6K1)", "sequence (Q9Y6K1 whole entry, looked up)": "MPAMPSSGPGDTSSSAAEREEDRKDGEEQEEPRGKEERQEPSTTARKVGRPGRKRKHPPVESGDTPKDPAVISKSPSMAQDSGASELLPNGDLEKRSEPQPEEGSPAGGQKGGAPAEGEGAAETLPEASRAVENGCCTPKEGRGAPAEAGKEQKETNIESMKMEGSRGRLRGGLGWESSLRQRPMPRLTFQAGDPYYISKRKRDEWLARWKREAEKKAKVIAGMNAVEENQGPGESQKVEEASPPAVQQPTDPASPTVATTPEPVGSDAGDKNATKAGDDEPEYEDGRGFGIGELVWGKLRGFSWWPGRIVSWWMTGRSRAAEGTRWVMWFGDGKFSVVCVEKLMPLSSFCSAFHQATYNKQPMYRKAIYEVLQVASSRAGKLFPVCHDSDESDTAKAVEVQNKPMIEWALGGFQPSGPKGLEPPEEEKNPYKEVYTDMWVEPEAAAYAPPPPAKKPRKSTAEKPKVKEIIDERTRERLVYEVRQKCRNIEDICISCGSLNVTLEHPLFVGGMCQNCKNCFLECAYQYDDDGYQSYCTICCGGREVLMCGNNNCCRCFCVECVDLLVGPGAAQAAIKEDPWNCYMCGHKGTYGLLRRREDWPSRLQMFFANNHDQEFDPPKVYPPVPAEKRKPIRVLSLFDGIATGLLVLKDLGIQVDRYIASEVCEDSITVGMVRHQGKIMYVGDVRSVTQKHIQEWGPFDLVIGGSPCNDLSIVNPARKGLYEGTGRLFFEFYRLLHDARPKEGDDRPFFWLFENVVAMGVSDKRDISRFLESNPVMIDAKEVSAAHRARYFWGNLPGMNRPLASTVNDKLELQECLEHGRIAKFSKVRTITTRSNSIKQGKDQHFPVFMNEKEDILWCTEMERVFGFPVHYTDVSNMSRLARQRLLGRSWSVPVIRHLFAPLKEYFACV", "assay": "Selectivity interaction (Transferase panel (protein, RNA, and DNA methyltransferases. and EP300 (acetyltransferase))) EUB0000270b DNMT3A"}, "[5]": {"biological_target": "Protein arginine N-methyltransferase 8 (Homo sapiens, UniProt Q9NR22)", "sequence (Q9NR22 2-394 limits assumed)": "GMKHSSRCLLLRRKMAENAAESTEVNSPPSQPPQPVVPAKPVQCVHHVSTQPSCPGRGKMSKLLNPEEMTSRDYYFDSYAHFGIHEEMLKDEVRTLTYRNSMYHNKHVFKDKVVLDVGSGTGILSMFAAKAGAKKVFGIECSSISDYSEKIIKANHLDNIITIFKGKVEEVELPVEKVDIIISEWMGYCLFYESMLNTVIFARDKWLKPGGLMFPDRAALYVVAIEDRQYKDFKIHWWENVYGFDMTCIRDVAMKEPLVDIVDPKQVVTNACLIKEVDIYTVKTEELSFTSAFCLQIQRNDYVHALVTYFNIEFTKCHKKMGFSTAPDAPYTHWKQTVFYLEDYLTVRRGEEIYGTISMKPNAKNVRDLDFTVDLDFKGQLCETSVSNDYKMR", "assay": "Selectivity interaction (Transferase panel (protein, RNA, and DNA methyltransferases. and EP300 (acetyltransferase))) EUB0000270b PRMT8"}, "[6]": {"biological_target": "Ribosomal protein S6 kinase alpha-5 (Homo sapiens) (UniProt O75582)", "assay": "Selectivity interaction (KinomeScan (DiscoverX)) EUB0000877a RPS6KA5", "details": "at 10 µM"}, "[7]": {"biological_target": "Cyclin-dependent kinase 1/cyclin B (Homo sapiens, UniProt P06493)", "assay": "Selectivity interaction (Kinase panel (Enzyme activity assay)) EUB0000612a CDK1", "format": "protein-complex assay"}, "[8]": {"biological_target": "Dual specificity protein kinase CLK4 (Homo sapiens, UniProt Q9HAZ1)", "sequence (Q9HAZ1 whole entry, looked up)": "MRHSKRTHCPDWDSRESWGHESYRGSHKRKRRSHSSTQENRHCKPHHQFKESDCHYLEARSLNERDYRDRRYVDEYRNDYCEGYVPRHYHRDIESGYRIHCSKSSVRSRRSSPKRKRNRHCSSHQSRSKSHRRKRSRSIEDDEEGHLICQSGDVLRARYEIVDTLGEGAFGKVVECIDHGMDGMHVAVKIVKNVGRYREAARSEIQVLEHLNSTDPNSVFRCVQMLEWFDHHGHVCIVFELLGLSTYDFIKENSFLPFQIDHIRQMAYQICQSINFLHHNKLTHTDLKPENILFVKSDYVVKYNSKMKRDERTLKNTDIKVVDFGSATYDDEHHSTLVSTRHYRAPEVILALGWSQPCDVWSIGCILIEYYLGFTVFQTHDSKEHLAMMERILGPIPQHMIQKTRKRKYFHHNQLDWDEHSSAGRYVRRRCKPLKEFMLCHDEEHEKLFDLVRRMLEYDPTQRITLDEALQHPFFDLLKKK", "details": "at 10 µM"}, "[9]": {"assay": "Selectivity interaction (KinomeScan (DiscoverX)) EUB0000595a CDK2H", "details": "at 10 µM"}, "[10]": {"biological_target": "Homeodomain-interacting protein kinase 1 (Homo sapiens, UniProt Q86Z02)", "assay": "Selectivity interaction (KinomeScan (DiscoverX)) EUB0000229b HIPK1", "details": "at 10 µM"}, "Histamine H3 receptor": {"biological_target": "Histamine H3 receptor (Homo sapiens, UniProt Q9Y5N1)", "sequence (Q9Y5N1 whole entry)": "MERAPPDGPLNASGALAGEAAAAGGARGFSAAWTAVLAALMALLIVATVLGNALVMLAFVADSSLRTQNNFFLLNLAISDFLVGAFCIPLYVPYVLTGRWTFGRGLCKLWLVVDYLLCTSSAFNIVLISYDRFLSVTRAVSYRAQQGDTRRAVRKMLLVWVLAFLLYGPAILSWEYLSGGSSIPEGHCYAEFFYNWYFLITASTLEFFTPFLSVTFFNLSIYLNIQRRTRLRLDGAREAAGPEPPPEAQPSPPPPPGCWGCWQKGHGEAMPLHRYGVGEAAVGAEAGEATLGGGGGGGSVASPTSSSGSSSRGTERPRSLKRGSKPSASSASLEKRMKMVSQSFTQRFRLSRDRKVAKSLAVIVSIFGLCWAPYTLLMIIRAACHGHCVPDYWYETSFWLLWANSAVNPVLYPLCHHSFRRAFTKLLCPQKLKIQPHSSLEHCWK", "assay": "Selectivity interaction (GPCR panel (PDSP screen)) EUB0001079a HRH3", "details": "at 10 µM"}, "[11]": {"biological_target": "Protein kinase C alpha type (Homo sapiens, UniProt P17252)", "assay": "Selectivity interaction (Upstate Kinase Profiler service (Millipore)) EUB0000056c PRKCA", "details": "at 1 µM"}, "[12]": {"biological_target": "Casein kinase I isoform epsilon (Homo sapiens, UniProt P49674)", "assay": "Selectivity interaction (KinomeScan (DiscoverX)) EUB0000655a CSNK1E", "details": "at 10 µM"}, "[13]": {"biological_target": "T2, Testis-specific serine/threonine-protein kinase 1 (Homo sapiens) (UniProt Q9BXA7)", "T2 sequence (whole entry)": "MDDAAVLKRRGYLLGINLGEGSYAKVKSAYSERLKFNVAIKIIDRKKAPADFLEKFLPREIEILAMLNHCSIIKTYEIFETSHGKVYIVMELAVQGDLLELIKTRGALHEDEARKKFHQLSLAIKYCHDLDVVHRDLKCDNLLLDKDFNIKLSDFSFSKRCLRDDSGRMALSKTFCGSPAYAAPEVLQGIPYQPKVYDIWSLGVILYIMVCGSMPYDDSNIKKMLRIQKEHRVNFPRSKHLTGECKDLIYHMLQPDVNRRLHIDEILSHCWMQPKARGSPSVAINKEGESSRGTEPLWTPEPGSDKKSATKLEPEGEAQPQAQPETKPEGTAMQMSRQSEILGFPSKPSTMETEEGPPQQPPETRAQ", "assay": "Selectivity interaction (KinomeScan (DiscoverX)) EUB0000655a TSSK1A", "details": "at 10 µM"}, "[14]": {"biological_target": "High affinity nerve growth factor receptor (Homo sapiens, UniProt P04629)", "assay": "Selectivity interaction (KinomeScan (DiscoverX)) EUB0001619a NTRK1", "details": "at 1 µM"}, "[15]": {"biological_target": "Proto-oncogene tyrosine-protein kinase Src (Homo sapiens, UniProt P12931)", "assay": "Selectivity interaction (KinomeScan (DiscoverX)) EUB0001619a SRC", "details": "at 1 µM"}, "[16]": {"tested_on": "Serine/threonine-protein kinase B-raf (Homo sapiens), P15056 [V600E]", "assay": "Selectivity interaction (KinomeScan (DiscoverX)) EUB0000618a BRAF", "details": "at 10 µM"}, "[17]": {"biological_target": "MAP kinase-interacting serine/threonine-protein kinase 2 (Homo sapiens, UniProt Q9HBH9)", "assay": "Selectivity interaction (KinomeScan (DiscoverX)) EUB0000607a MKNK2", "details": "at 10 µM"}, "[18]": {"biological_target": "Phosphatidylinositol 4-phosphate 3-kinase C2 domain-containing subunit beta (Homo sapiens) (UniProt O00750)", "sequence (O00750 whole entry, the tested form may be a part)": "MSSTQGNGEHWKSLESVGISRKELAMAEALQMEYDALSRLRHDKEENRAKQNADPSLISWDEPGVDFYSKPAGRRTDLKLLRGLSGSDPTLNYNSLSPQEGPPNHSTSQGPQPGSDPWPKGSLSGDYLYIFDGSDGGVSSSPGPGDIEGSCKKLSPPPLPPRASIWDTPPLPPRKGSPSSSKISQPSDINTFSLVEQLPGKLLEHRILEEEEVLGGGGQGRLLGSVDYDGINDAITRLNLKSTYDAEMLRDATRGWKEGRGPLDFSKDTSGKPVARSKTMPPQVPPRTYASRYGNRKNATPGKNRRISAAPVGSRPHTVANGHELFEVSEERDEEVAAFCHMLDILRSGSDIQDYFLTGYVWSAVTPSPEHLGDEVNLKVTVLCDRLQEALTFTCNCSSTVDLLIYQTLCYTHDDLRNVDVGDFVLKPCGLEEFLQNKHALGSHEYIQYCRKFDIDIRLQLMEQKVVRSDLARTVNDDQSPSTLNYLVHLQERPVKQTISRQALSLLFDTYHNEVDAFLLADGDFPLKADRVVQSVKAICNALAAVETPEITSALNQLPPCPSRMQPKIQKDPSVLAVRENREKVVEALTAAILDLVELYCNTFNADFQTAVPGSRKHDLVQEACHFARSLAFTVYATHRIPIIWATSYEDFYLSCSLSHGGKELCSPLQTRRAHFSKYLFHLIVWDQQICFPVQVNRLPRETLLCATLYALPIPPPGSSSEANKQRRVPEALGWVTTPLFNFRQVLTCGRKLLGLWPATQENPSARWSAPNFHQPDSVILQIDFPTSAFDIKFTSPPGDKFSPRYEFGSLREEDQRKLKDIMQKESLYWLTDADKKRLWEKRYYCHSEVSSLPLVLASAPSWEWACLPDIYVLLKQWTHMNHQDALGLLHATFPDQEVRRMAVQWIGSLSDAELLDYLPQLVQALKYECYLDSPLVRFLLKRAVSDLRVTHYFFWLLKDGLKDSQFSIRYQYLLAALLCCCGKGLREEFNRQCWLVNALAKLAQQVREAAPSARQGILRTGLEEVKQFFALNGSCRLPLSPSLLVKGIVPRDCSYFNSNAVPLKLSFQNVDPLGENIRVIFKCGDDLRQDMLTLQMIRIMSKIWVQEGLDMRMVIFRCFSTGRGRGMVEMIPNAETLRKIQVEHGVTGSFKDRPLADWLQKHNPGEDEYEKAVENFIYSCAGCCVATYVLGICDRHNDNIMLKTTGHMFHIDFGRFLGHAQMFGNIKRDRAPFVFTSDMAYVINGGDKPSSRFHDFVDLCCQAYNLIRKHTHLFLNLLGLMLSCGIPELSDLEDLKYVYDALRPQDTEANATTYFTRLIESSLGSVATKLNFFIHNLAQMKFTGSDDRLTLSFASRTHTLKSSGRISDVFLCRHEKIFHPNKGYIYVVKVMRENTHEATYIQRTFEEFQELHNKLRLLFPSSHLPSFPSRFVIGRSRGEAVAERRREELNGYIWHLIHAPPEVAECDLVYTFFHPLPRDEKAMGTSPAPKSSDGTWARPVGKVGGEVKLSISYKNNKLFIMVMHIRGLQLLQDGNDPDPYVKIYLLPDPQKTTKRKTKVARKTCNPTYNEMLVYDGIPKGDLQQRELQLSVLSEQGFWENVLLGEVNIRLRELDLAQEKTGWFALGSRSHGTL", "assay": "Selectivity interaction (Kinase panel (KiNativ target engagement assay in Jurkat cells)) EUB0001635a PIK3C2B", "format": "cell-based", "details": "Selectivity number of off-targets 0.0, Selectivity number of targets 233.0, Source Knowledge https://www.sciencedirect.com/science/article/pii/S2451945619300674?via%3Dihub, at 1 µM"}, "Ephrin type-A receptor 4": {"biological_target": "Ephrin type-A receptor 4 (Homo sapiens, UniProt P54764)", "assay": "Selectivity interaction (KinomeScan (DiscoverX)) EUB0000666a EPHA4", "details": "at 10 µM"}, "[19]": {"biological_target": "T3, Rhodopsin kinase GRK1 (Homo sapiens) (UniProt Q15835)", "T3 sequence (whole entry)": "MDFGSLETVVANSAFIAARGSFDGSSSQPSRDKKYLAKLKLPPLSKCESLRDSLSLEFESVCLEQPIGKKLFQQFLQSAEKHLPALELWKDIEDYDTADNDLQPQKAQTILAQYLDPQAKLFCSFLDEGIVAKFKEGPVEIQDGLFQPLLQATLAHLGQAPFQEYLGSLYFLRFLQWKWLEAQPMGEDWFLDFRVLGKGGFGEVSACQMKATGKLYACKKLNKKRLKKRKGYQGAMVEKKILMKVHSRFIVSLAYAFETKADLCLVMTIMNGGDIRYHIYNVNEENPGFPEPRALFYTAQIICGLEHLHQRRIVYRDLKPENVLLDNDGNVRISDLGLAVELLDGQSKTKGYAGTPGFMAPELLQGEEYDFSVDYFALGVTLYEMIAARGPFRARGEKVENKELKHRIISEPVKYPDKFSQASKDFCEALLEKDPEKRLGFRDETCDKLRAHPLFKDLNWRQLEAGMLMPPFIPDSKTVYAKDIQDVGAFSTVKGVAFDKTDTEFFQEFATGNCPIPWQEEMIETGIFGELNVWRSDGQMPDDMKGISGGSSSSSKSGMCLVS", "assay": "Selectivity interaction (KinomeScan (DiscoverX)) EUB0000666a GRK1", "details": "at 10 µM"}}, "note": "pIC50: −log10 of the molar value."}
{"smiles": "Cc1cc([C@@H](C)Nc2ccccc2C(=O)O)c2nc(N3CCOCC3)cc(=O)n2c1", "note": "[AZD-6482]", "values": [{"measurement": "% of control", "setting": "[1]", "value": 100, "unit": "%"}]}
{"smiles": "Cc1cnc(Nc2ccc(F)cc2Cl)nc1-c1c[nH]c(C(=O)N[C@H](CO)c2cccc(Cl)c2)c1", "values": [{"measurement": "% of inhibition", "setting": "[2]", "value": 3, "unit": "%"}]}
{"smiles": "CN(C)C/C=C/C(=O)Nc1ccc(C(=O)N2CCCC(Nc3ncc(Cl)c(-c4c[nH]c5ccccc45)n3)C2)cc1", "note": "(stereo not drawn)", "values": [{"measurement": "% of control", "setting": "[3]", "value": 78, "unit": "%"}]}
{"smiles": "Cc1cc(CN)cc(C)c1-c1ncn(C)c1-c1cncn1C", "values": [{"measurement": "% activity", "setting": "[4]; at 1 µM", "value": "> 90", "unit": "%"}, {"measurement": "% activity", "setting": "[4]; at 10 µM", "value": "> 80", "unit": "%"}, {"measurement": "% activity", "setting": "[5]; at 1 µM", "value": "> 90", "unit": "%"}, {"measurement": "% activity", "setting": "[5]; at 10 µM", "value": "> 80", "unit": "%"}]}
{"smiles": "CCC(=O)N1CC[C@H](Nc2ncnc3c2CN(c2cnc(OC)c(C(F)(F)F)c2)CC3)C1", "note": "[LENIOLISIB]", "values": [{"measurement": "% of inhibition", "setting": "[6]", "value": 76, "unit": "%"}]}
{"smiles": "CCc1cccc(CC)c1NC(=O)c1nn(C)c2c1CCc1cnc(Nc3ccc(C(=O)NC4CCN(C)CC4)cc3OC(F)(F)F)nc1-2", "values": [{"measurement": "pIC50", "setting": "[7]", "value": "< 5.00"}]}
{"smiles": "CCN(CC)CCCCNc1ncc2cc(-c3cc(OC)cc(OC)c3)c(NC(=O)NC(C)(C)C)nc2n1", "values": [{"measurement": "% of control", "setting": "[8]", "value": 100, "unit": "%"}]}
{"smiles": "COCC(=O)NC/C=C/c1ccc2ncnc(Nc3ccc(Oc4ccc(C)nc4)c(C)c3)c2c1", "note": "[CP-724714]", "values": [{"measurement": "% of control", "setting": "[9]", "value": 100, "unit": "%"}]}
{"smiles": "COc1cc(N(C)c2ccnc3ccc(C(F)(F)F)cc23)cc(OC)c1OC", "values": [{"measurement": "% binding", "setting": "[10]", "value": 77, "unit": "%"}]}
{"smiles": "Nc1cnc(N2CCc3cc(S(=O)(=O)Nc4c(F)cc(Cl)cc4F)cc(N4CCCC4=O)c32)nc1", "note": "[TP-020n]", "values": [{"measurement": "% of inhibition", "setting": "Histamine H3 receptor", "value": -1.21, "unit": "%"}]}
{"smiles": "Cc1ccc(-c2ccc3c(ccc4sc5c(c43)NC[C@@H](C)NC5=O)n2)cn1", "values": [{"measurement": "% of inhibition", "setting": "[11]", "value": 11, "unit": "%"}]}
{"smiles": "CN(C)CCOc1ccc(-c2nc(-c3ccncc3)c(-c3ccc4c(c3)CC/C4=N\\O)[nH]2)cc1", "values": [{"measurement": "% of control", "setting": "[12]", "value": 14, "unit": "%"}, {"measurement": "% of control", "setting": "[13]", "value": 86, "unit": "%"}]}
{"smiles": "N#Cc1cccc(-c2c[nH]c3ncnc(N4CCOCC4)c23)c1", "values": [{"measurement": "% of control", "setting": "[14]", "value": 88, "unit": "%"}, {"measurement": "% of control", "setting": "[15]", "value": 100, "unit": "%"}]}
{"smiles": "O[C@H]1CC[C@H](Nc2ncc3nc(Nc4c(F)cc(F)cc4F)n([C@H]4CCOC4)c3n2)CC1", "values": [{"measurement": "% of control", "setting": "[16]", "value": 98, "unit": "%"}]}
{"smiles": "CNC(=O)Nc1ccc(-c2nc(N3CC4CCC(C3)O4)c3cnn(C4CCC5(CC4)OCCO5)c3n2)cc1", "values": [{"measurement": "% of control", "setting": "[17]", "value": 87, "unit": "%"}]}
{"smiles": "C=CC(=O)Nc1ccc(C(=O)Nc2[nH]nc3c2CN(C(=O)N[C@H](CN(C)C)c2ccccc2)C3(C)C)cc1", "values": [{"measurement": "% of engagement", "setting": "[18]", "value": -18.6, "unit": "%"}]}
{"smiles": "O=C(NOC[C@H](O)CO)c1ccc(F)c(F)c1Nc1ccc(I)cc1F", "values": [{"measurement": "% of control", "setting": "Ephrin type-A receptor 4", "value": 100, "unit": "%"}, {"measurement": "% of control", "setting": "[19]", "value": 100, "unit": "%"}]}
